Experimental data from US6967196B1, “Sulfonamide compounds and uses thereof” (Bristol-Myers Squibb Company, priority 1999, dated 2005).
Counter-ions that a name gives are not always drawn.

These molecules were tested on amyloid β production in transfected H4 (human neuroglioma) cells stably expressing APP constructs (assay: In vitro cell-based assay of inhibitors of amyloid β production (ELISA)). Settings: Homo sapiens, 16 h, transfected H4 cells expressing APP, approximately 16 hours incubation, amyloid β in medium by ELISA; read-out: ACTIVITY (IC50, inhibition of amyloid β production).
Outline: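 Sandwich ELISA read-out: Aβ in conditioned medium captured via C-terminal epitope mAb, detected with N-terminus-specific rabbit polyclonal, quantified from a standard curve. Compounds 10-100 μM, ~16 h exposure. Active = ≥50% inhibition vs control without significant cytotoxicity; dose-response follows.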

Molecule | IC50
C[C@H](C(=O)NCc1cccc(I)c1)N(c1cc(Cl)ccc1F)S(=O)(=O)c1ccc(Cl)cc1 [Example 1330] | > 500 nM
CCN(CCCn1ccnc1)C(=O)OC[C@@H](C)N(c1cc(Cl)ccc1CO)S(=O)(=O)c1ccc(Cl)cc1 [Example 1296] | > 10000 nM
C[C@@H](C(=O)NCc1ccccc1Sc1ccccc1CO)N(c1cc(Cl)ccc1F)S(=O)(=O)c1ccc(Cl)cc1 [Example 1363] | > 500 nM

Same assay, conditions: Homo sapiens, 16 h, transfected H4 cells stably expressing APP constructs; approximately 16 hours incubation; amyloid β in medium by ELISA; read-out: ACTIVITY (IC50, inhibition of amyloid β production)

Molecule | IC50
C[C@H](CCCS(N)(=O)=O)N(c1cc(Cl)ccc1CO)S(=O)(=O)c1ccc(Cl)cc1 [Example 1235, 4-chloro-N-[5-chloro-2-(hydroxymethyl)phenyl]-N-[4-(aminosulfonyl)-1(R)-methylbutyl]benzenesulfonamide] | ≤ 25 nM
CNS(=O)(=O)CCC[C@@H](C)N(c1cc(F)ccc1F)S(=O)(=O)c1ccc(Cl)cc1 [Example 1207, 4-chloro-N-[2,5-difluorophenyl]-N-[4-[(methylamino)sulfonyl]-1(R)-methylbutyl]benzenesulfonamide] | ≤ 25 nM
O=S(=O)(c1ccc(Sc2ccccc2)cc1)N(Cc1ccccc1OCCCSc1ccccc1)c1cc(F)ccc1F [Example 1095, N-(2,5-difluorophenyl)-4-(phenylsulfanyl)-N-{2-[3-(phenylsulfanyl)propoxy]benzyl}benzenesulfonamide] | > 10000 nM

Same assay, conditions: Homo sapiens, 16 h, transfected H4 cells stably expressing APP; approx. 16 h incubation; amyloid β in medium by ELISA; read-out: ACTIVITY (IC50, inhibition of amyloid β production)

Molecule | IC50
CCN(CCOc1ccccc1C(C)N(c1cc(F)ccc1F)S(=O)(=O)c1ccc(Cl)cc1)C(=O)NC(C)(C)C (stereo not shown) [Example 709, N-[1-(2-{2-[[(tert-butylamino)carbonyl](ethyl)amino]ethoxy}phenyl)ethyl]-4-chloro-N-(2,5 difluorophenyl)benzenesulfonamide] | 100 to 500 nM
COc1ccc([S+]([O-])CCCOc2ccccc2CN(c2cc(F)ccc2F)S(=O)(=O)c2ccc(Cl)cc2)cc1 (stereo not shown) [Example 803, 4-chloro-N-(2,5-difluorophenyl)-N-(2-{3-[(4-methoxyphenyl)sulfinyl]propoxy}benzyl)benzenesulfonamide] | 100 to 500 nM
CC(c1ccccc1OCCCN(C)S(=O)(=O)c1ccc(Cl)cc1)N(c1cc(F)ccc1F)S(=O)(=O)c1ccc(Cl)cc1 (stereo not shown) [Example 794, 4-chloro-N-[1-(2-{3-[[(4-chlorophenyl)sulfonyl](methyl)amino]propoxy}phenyl)ethyl]-N-(2,5-difluorophenyl)benzenesulfonamide] | 100 to 500 nM

Same assay, conditions: Homo sapiens, 16 h, transfected H4 cells stably expressing APP; approximately 16 hours incubation; amyloid β in medium by ELISA; Table B; read-out: ACTIVITY (IC50, inhibition of amyloid β production)

Molecule | IC50
C[C@H](c1ccccc1CCC(=O)NCc1ccc2c(c1)OCO2)N(c1cc(F)ccc1F)S(=O)(=O)c1ccc(Cl)cc1 [Example 388, N-(1,3-benzodioxol-5-ylmethyl)-3-[2-((1R)-1-{[(4-chlorophenyl)sulfonyl]-2,5-difluoroanilino}ethyl)phenyl]propanamide] | 50 to 100 nM
CC(c1ccccc1OCCCNC(=O)c1c(F)cccc1F)N(c1cc(F)ccc1F)S(=O)(=O)c1ccc(Cl)cc1 (stereo not shown) [Example 408, N-{3-[2-(1-{[(4-chlorophenyl)sulfonyl]-2,5-difluoroanilino}ethyl)phenoxy]propyl}-2,6-difluorobenzamide] | 50 to 100 nM

Same assay, conditions: Homo sapiens, 16 h, transfected H4 cells stably expressing APP; approximately 16 hours incubation; amyloid β in medium by ELISA; read-out: ACTIVITY (IC50, inhibition of amyloid β production)

Molecule | IC50
CC1CC(C)CN(CCCOc2ccccc2CN(c2ccccc2)S(=O)(=O)c2ccc(Cl)cc2)C1 (stereo not shown) [Example 926, 4-chloro-N-{2-[3-(3,5-dimethyl-1-piperidinyl)propoxy]benzyl}-N-phenylbenzenesulfonamide hydrochloride] | > 500 nM
CS(=O)(=O)c1ccccc1N(Cc1ccccc1OCCCN1CCCCC1)S(=O)(=O)c1ccc(Cl)cc1 [Example 1027, 4-chloro-N-[2-(methylsulfonyl)phenyl]-N-{2-[3-(1-piperidinyl)propoxy]benzyl}benzenesulfonamide hydrochloride] | > 500 nM
CSc1ccc(N(Cc2ccccc2OCCCN2CCCCC2)S(=O)(=O)c2ccc(Cl)cc2)cc1 [Example 1019, 4-chloro-N-[4-(methylsulfanyl)phenyl]-N-{2-[3-(1-piperidinyl)propoxy]benzyl}benzenesulfonamide hydrochloride] | > 500 nM
O=S(=O)(c1ccc(Cl)cc1)N(Cc1ccccc1OCCCS)c1ccccc1 [Example 1018, 4-chloro-N-phenyl-N-[2-(3-sulfanylpropoxy)benzyl]benzenesulfonamide] | > 500 nM

Same assay, conditions: Table B; transfected H4 cells stably expressing APP; approximately 16 hours incubation; amyloid β in medium by ELISA; read-out: ACTIVITY (inhibitory concentration IC50, inhibition of amyloid β production)

Molecule | IC50
C[C@H](CC[S+]([O-])CC(=O)O)N(c1cc(Cl)ccc1Cl)S(=O)(=O)c1ccc(Cl)cc1 (stereo partly shown) [Example 182] | 25 to 50 nM
C[C@H](O)CO[Si](C)(C)C(C)(C)C [Example 21] | ≤ 25 nM

Same assay, conditions: transfected H4 cells stably expressing APP constructs; approximately 16 hours incubation; amyloid β in medium by ELISA; read-out: ACTIVITY (IC50, inhibition of amyloid β production)

Molecule | IC50
CC(CC[C@@H](C)N(c1cc(Cl)ccc1Cl)S(=O)(=O)c1ccc(Cl)cc1)N1CCCC(S(C)(=O)=O)C1 (stereo partly shown) [Example 1140] | 100 to 500 nM
4-chloro-N-(2,5-difluorophenyl)-N-[3-[2-[4-chloro-N-(2,5-difluorophenyl)-N-[(3-amino)-1(R)-methylpropyl]benzenesulfonamide]-3,4-dioxo-1-cyclobutenyl)amine-1(R)- [Example 1139] | 100 to 500 nM
COC(=O)CS(=O)(=O)CC[C@@H](C)N(c1cc(Cl)ccc1Cl)S(=O)(=O)c1ccc(Cl)cc1 [Example 1191, methyl(6R)-6-[(2,5-dichlorophenyl)-[(4-chlorophenyl)sulfonyl]-amino]-3-thioheptanoic acid, 3,3-dioxide] | 100 to 500 nM
CC(C)S(=O)(=O)CCC[C@@H](C)N(c1cc(Cl)ccc1Cl)S(=O)(=O)c1ccc(Cl)cc1 [Example 1161] | ≤ 25 nM
CC1CN(C(=O)CCCC[C@@H](C)N(c2cc(Cl)ccc2F)S(=O)(=O)c2ccc(Cl)cc2)CCS1(=O)=O (stereo partly shown) [Example 1272] | ≤ 25 nM

Same assay, conditions: transfected H4 cells stably expressing APP; approx. 16 h incubation; amyloid β in medium by ELISA; read-out: ACTIVITY (IC50, inhibition of amyloid β production)

Molecule | IC50
N-{4-[2-(1-{[(4-chlorophenyl)sulfonyl]-2,5-difluoroanilino}ethyl)phenoxy]butyl}-2-cyclohexyl-N-ethylacetamide [Example 785] | 100 to 500 nM
N-{3-[2-(1-{[(4-chlorophenyl)sulfonyl]-2,5-difluoroanilino}ethyl)phenoxy]propyl}-2,3,4,5-tetrafluoro-N-methylbenzamide [Example 778] | 100 to 500 nM
CC(c1ccccc1OCCCN(C)S(=O)(=O)/C=C/c1ccccc1)N(c1cc(F)ccc1F)S(=O)(=O)c1ccc(Cl)cc1 (stereo not shown) [Example 773, 4-chloro-N-(2,5-difluorophenyl)-N-(1-{2-[3-(methyl{[(E)-2-phenylethyl]sulfonyl}amino)propoxy]phenyl}ethyl)benzenesulfonamide] | 100 to 500 nM

Same assay, conditions: transfected H4 cells stably expressing APP; approximately 16 hours incubation; amyloid β in medium by ELISA; Table B; read-out: ACTIVITY (IC50, inhibition of amyloid β production)

Molecule | IC50
O=S(=O)(c1ccc(Cl)cc1)N(Cc1ccccc1OCCCN1CCC1)c1ccccc1 [Example 292, N-{2-[3-(1-azetidinyl)propoxy]benzyl}-4-chloro-N-phenylbenzenesulfonamide Hydrochloride] | 25 to 50 nM
COC(=O)[C@@H](N)CS(=O)(=O)CCCc1cc(F)ccc1[C@@H](C)N(c1cc(F)ccc1F)S(=O)(=O)c1ccc(Cl)cc1 [Example 487, Methyl (2R)-2-amino-3-({3-[2-((1R)-1-{[(4-chlorophenyl)sulfonyl]-2,5-difluoroanilino}ethyl)-5-fluorophenyl]propyl}sulfonyl)propanoate Hydrochloride] | 100 to 500 nM
C[C@H](c1ccc(F)cc1CCCC(=O)O)N(c1cc(F)ccc1F)S(=O)(=O)c1ccc(Cl)cc1 [Example 494, 4-[2-((1R)-1-{[(4-chlorophenyl)sulfonyl]-2,5-difluoroanilino}ethyl) 5-fluorophenyl]butanoic Acid] | 100 to 500 nM

Same assay, conditions: transfected H4 cells stably expressing APP; approximately 16 hours incubation; amyloid β in medium by ELISA; hydrochloride; read-out: ACTIVITY (IC50, inhibition of amyloid β production)

Molecule | IC50
CCC[C@@H](C)N(Cc1ccccc1OCCCN1CCCCC1)S(=O)(=O)c1ccc(Cl)cc1 [Example 867, 4-chloro-N-[(1R)-1-methylbutyl]-N-{2-[3-(1-piperidinyl)propoxy]benzyl}benzenesulfonamide hydrochloride] | 100 to 500 nM

Same assay, conditions: transfected H4 cells stably expressing APP; approximately 16 hours incubation; amyloid β in medium by ELISA; read-out: ACTIVITY (IC50, inhibition of amyloid β production)

Molecule | IC50
CC(c1ccccc1OCCCN(C)C(=O)c1ccc(-c2ccccc2)cc1)N(c1cc(F)ccc1F)S(=O)(=O)c1ccc(Cl)cc1 (stereo not shown) [Example 840, N-{3-[2-(1-{[(4-chlorophenyl)sulfonyl]-2,5-difluoroanilino}ethyl)phenoxy]propyl}-N-methyl[1,1′-biphenyl]-4-carboxamide] | 100 to 500 nM
O=S(=O)(c1ccc(Cl)cc1)N(Cc1ccccc1CCCCN1CCCCC1)c1ccccc1 [Example 981, 4-chloro-N-phenyl-N-{2-[4-(1-piperdinyl)butyl]benzyl}benzenesulfonamide hydrochloride] | > 500 nM
ethyl 3-(2-{[(phenylsulfonyl)anilino]methyl}phenyl)propanoate [Example 995] | > 500 nM
2-((1R)-1-{[(4-chlorophenyl)sulfonyl]-2,5-difluoroanilino}ethyl)benzyl diethylcarbamate [Example 894] | > 500 nM
2-((1R)-1-{[(4-chlorophenyl)sulfonyl]-2,5-difluoroanilino}ethyl)benzyl 3-fluorobenzylcarbamate [Example 910] | > 500 nM
